# How the values were obtained:
# [1] = target: T1, serum albumin (Homo sapiens, UniProt P02768); experiment: Binding affinity to human serum albumin at 30 uM by HPLC analysis; type: ADME; conditions: read-out: PB (converted)
# [2] = target: T2, serum albumin (Rattus norvegicus, UniProt P02770); experiment: Binding affinity to rat serum albumin at 30 uM by HPLC analysis; type: ADME; conditions: read-out: PB (converted)
# [3] = target: T1, serum albumin; experiment: Binding affinity to human serum albumin assessed as fraction unbound at 30 uM by HPLC analysis; type: ADME
# [4] = target: T2, serum albumin; experiment: Binding affinity to rat serum albumin assessed as fraction unbound at 30 uM by HPLC analysis; type: ADME
# [5] = Ratio of binding affinity to rat serum albumin assessed as fraction unbound to binding affinity to human serum albumin assessed as fraction unbound; type: ADME; conditions: isolated protein
# [6] = system: Pelophylax lessonae; experiment: Inhibition of voltage-gated sodium channel in Rana esculenta ventral branch of semitendinosus muscle assessed as tonic block by measuring reduction of maximal peak sodium transient at 300 uM at 10 Hz stimulation frequency by Hille-Campbell vaseline gap voltage-clamp recording; type: tissue-based
# [7] = Inhibition of voltage-gated sodium channel in Rana esculenta ventral branch of semitendinosus muscle assessed as tonic block at 10 Hz stimulation frequency by measuring reduction of maximal peak sodium transient by Hille-Campbell vaseline gap voltage-clamp recording; type: tissue-based, Pelophylax lessonae
# [8] = Inhibition of voltage-gated sodium channel in Rana esculenta ventral branch of semitendinosus muscle assessed as tonic block by measuring reduction of maximal peak sodium transient at holding potential -100 mV by Hille-Campbell vaseline gap voltage-clamp recording; type: tissue-based, Pelophylax lessonae
# [9] = Inhibition of voltage-gated sodium channel in Rana esculenta ventral branch of semitendinosus muscle assessed as use-dependent block at 2 Hz stimulation frequency by Hille-Campbell vaseline gap voltage-clamp recording; type: tissue-based, Pelophylax lessonae
# [10] = system: Pelophylax lessonae; experiment: Ratio of IC50 for tonic block of voltage-gated sodium channel in Rana esculenta ventral branch of semitendinosus muscle to IC50 for use-dependent block of voltage-gated sodium channel in Rana esculenta ventral branch of semitendinosus muscle at 2 Hz frequency; type: tissue-based
# [11] = Inhibition of voltage-gated sodium channel in Rana esculenta ventral branch of semitendinosus muscle assessed as use-dependent block at 10 Hz frequency by Hille-Campbell vaseline gap voltage-clamp recording; type: tissue-based, Pelophylax lessonae
# [12] = system: Pelophylax lessonae; experiment: Ratio of IC50 for tonic block of voltage-gated sodium channel in Rana esculenta ventral branch of semitendinosus muscle to IC50 for use-dependent block of voltage-gated sodium channel in Rana esculenta ventral branch of semitendinosus muscle at 10 Hz frequency; type: tissue-based
# [13] = Inhibition of voltage-gated sodium channel in Rana esculenta ventral branch of semitendinosus muscle at -140 mV of holding potential by Hille-Campbell vaseline gap voltage-clamp recording; type: tissue-based, Pelophylax lessonae
# [14] = Inhibition of voltage-gated sodium channel in Rana esculenta ventral branch of semitendinosus muscle at -70 mV of holding potential by Hille-Campbell vaseline gap voltage-clamp recording; type: tissue-based, Pelophylax lessonae
# [15] = system: Pelophylax lessonae; experiment: Steady state inactivation of voltage-gated sodium channel in Rana esculenta ventral branch of semitendinosus muscle at 100 uM assessed as change in potential at which 50% of sodium channel were inactivated measured at 1000 ms prepulse by Hille-Campbell vaseline gap voltage-clamp recording; type: tissue-based
# [16] = system: Pelophylax lessonae; experiment: Inhibition of voltage-gated sodium channel in Rana esculenta ventral branch of semitendinosus muscle assessed as tonic block by measuring reduction of maximal peak sodium transient at 500 uM at 10 Hz stimulation frequency by Hille-Campbell vaseline gap voltage-clamp recording; type: tissue-based
# [17] = target: T1, serum albumin; experiment: Binding affinity to human serum albumin; type: ADME; conditions: read-out: PB (converted)
# T2 sequence (P02770 whole entry): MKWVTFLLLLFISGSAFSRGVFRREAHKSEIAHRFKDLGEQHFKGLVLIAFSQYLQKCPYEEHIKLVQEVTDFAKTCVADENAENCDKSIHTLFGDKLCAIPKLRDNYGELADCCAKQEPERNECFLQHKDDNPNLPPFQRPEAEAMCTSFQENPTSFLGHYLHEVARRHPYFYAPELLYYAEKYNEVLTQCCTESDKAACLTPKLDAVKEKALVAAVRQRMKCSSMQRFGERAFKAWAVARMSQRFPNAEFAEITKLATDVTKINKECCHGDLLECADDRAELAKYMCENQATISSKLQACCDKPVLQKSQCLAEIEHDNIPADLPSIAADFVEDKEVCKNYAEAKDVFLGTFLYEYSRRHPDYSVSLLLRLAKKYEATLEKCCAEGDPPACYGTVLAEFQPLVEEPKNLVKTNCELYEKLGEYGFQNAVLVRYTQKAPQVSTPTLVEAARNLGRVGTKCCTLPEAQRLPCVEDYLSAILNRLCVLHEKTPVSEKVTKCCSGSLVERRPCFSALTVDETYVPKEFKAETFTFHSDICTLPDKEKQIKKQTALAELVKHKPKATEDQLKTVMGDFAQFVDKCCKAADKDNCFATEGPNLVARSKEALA
# T1 sequence (P02768 whole entry): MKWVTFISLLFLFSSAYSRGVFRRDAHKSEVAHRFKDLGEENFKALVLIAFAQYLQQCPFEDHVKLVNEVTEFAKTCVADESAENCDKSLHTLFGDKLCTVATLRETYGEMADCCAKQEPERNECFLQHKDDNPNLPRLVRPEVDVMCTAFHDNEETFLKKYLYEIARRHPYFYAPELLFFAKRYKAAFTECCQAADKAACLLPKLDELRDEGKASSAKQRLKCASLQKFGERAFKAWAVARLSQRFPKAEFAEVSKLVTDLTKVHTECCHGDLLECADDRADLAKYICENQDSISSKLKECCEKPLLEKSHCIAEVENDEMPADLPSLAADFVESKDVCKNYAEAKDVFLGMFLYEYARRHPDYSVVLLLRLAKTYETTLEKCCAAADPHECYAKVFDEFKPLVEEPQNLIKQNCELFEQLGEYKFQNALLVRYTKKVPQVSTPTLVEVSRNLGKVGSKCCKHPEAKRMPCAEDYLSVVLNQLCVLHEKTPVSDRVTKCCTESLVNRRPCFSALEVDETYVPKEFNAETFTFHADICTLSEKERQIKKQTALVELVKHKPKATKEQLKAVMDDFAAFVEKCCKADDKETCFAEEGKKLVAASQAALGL
smiles,measurement,setting,value
Cc1cccc(C)c1NC(=O)C1CCN(Cc2ccccc2)C1 (centres undefined),fraction unbound at 30 µM,[1],0.029
same,fraction unbound at 30 µM,[2],0.064
same,fraction unbound at 30 µM,[3],0.0284
same,fraction unbound at 30 µM,[4],0.0644
same,Ratio,[5],2.27
Cc1cccc(C)c1NC(=O)CC(C)N (racemic),inhibition,[6],35.6%
same,pIC50,[7],4.31
same,IC50,[8],420 µM
same,IC50,[9],81.2 µM
same,Ratio IC50,[10],5.2
same,IC50,[11],48.8 µM
same,Ratio IC50,[12],8.6
same,IC50,[13],603 µM
same,IC50,[14],54 µM
same,Activity,[15],4.8 mV
Cc1cccc(C)c1NC(=O)CC(C)NCc1ccccc1 (racemic),fraction unbound at 30 µM,[1],0.047
same,fraction unbound at 30 µM,[2],0.121
same,fraction unbound at 30 µM,[3],0.0474
same,fraction unbound at 30 µM,[4],0.122
Cc1cccc(C)c1NC(=O)CC(C)NCc1cccc2ccccc12 (racemic),fraction unbound at 30 µM,[1],0.033
same,fraction unbound at 30 µM,[2],0.04
same,fraction unbound at 30 µM,[3],0.033
same,fraction unbound at 30 µM,[4],0.04
Cc1cccc(C)c1NC(=O)C(C)N (racemic) [TOCAINIDE],inhibition,[16],42.6%
same,IC50,[8],523 µM
same,IC50,[9],350 µM
same,Ratio IC50,[10],1.5
same,IC50,[11],248 µM
same,Ratio IC50,[12],2.1
same,IC50,[13],985 µM
same,IC50,[14],254 µM
same,fraction unbound at 30 µM,[1],0.746
same,fraction unbound at 30 µM,[2],0.64
same,fraction unbound at 30 µM,[3],0.746
same,fraction unbound at 30 µM,[4],0.64
same,Ratio,[5],0.86
O=C1CN=C(c2ccccc2Cl)c2cc([N+](=O)[O-])ccc2N1 [CLONAZEPAM],fraction unbound at 30 µM,[1],0.143
same,fraction unbound at 30 µM,[2],0.117
same,fraction unbound,[17],0.14

# Source: ChEMBL document CHEMBL3232895, “N-aryl-2,6-dimethylbenzamides, a new generation of tocainide analogues as blockers of skeletal muscle voltage-gated sodium channels” (J Med Chem, 2014)
